Key:
[1] = test system: HSC1; assay: relative IC50 (inflection point of fitted dose-response curve, CellTox-Green cytotoxicity, 72 h; top asymptote may be below 50%); higher = less potent
How it was run: (§1)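 MPNST cell lines and primary human Schwann cells were incubated 72 h at 37 °C in 384-well plates holding five 10-fold compound dilutions. CellTox-Green was added before seeding at a final 1:1000 dilution and reported fluorescence from DNA released by disrupted cells. Signals were scaled to vehicle and positive-control wells, and cultures failing plate quality control were dropped. Drug sensitivity score and relative IC50 come from four-parameter logistic fits, with IC50 censored at the top concentration.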

[2] = test system: HSC2; assay: as above
How it was run: as §1

[3] = test system: S1507-2; assay: as above
How it was run: as §1

[4] = test system: ST8814; assay: as above
How it was run: as §1

[5] = test system: STS26T; assay: as above
How it was run: as §1

[6] = test system: HSC1; assay: relative IC50 (inflection point of fitted dose-response curve, CellTiter-Glo viability, 72 h; top asymptote may be below 50% inhibition); higher = less potent
How it was run: (§2)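 MPNST cell lines and primary human Schwann cells (750–1000 cells per well) went into 384-well plates preprinted with each compound at five concentrations in 10-fold steps. Plates were incubated 72 h at 37 °C, 5% CO2. Viability was read as CellTiter-Glo ATP luminescence, scaled between vehicle and positive-control wells, with duplicates averaged where present. Percent inhibition is at the top concentration; drug sensitivity score and relative IC50 (censored at top concentration) come from four-parameter logistic fits.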

[7] = test system: HSC2; assay: as above
How it was run: as §2

[8] = test system: S1507-2; assay: as above
How it was run: as §2

[9] = test system: S462; assay: as above
How it was run: as §2

[10] = test system: ST8814; assay: as above
How it was run: as §2

[11] = test system: STS26T; assay: as above
How it was run: as §2

[12] = test system: HS-PSS; assay: relative IC50 (inflection point of fitted dose-response curve, CellTox-Green cytotoxicity, 72 h; top asymptote may be below 50%); higher = less potent
How it was run: as §1

[13] = test system: HS-PSS; assay: relative IC50 (inflection point of fitted dose-response curve, CellTiter-Glo viability, 72 h; top asymptote may be below 50% inhibition); higher = less potent
How it was run: as §2

[14] = test system: HS-Sch-2; assay: as above
How it was run: as §2

[15] = test system: YST-1; assay: as above
How it was run: as §2

Row | SMILES | relative IC50 [1] [nM] | relative IC50 [2] [nM] | relative IC50 [3] [nM] | relative IC50 [4] [nM] | relative IC50 [5] [nM] | relative IC50 [6] [nM] | relative IC50 [7] [nM] | relative IC50 [8] [nM] | relative IC50 [9] [nM] | relative IC50 [10] [nM] | relative IC50 [11] [nM] | relative IC50 [12] [µM] | relative IC50 [13] [nM] | relative IC50 [14] [nM] | relative IC50 [15] [nM]
1 | COC1=C2C[C@@H](C)C[C@H](OC)[C@H](O)[C@@H](C)/C=C(\C)[C@H](OC(N)=O)[C@@H](OC)/C=C\C=C(/C)C(=O)NC(=CC1=O)C2=O [Geldanamycin] | 204 | 211 | 2650 | 1320 | 1160 | 363 | 338 | 1690 | 454 | 765 | 780 | – | – | – | –
2 | COc1cc2c(cc1-c1c(C)noc1C)ncc1[nH]c(=O)n([C@H](C)c3ccccn3)c12 [I-BET151] | – | > 10000 | 1400 | 1240 | > 10000 | 992 | 1150 | 1250 | 1310 | 918 | 1130 | > 10 | 1710 | 1060 | 1070
3 | CS(=O)(=O)CCNCc1ccc(-c2ccc3ncnc(Nc4ccc(OCc5cccc(F)c5)c(Cl)c4)c3c2)o1 [Lapatinib] | > 1000 | > 1000 | > 1000 | > 1000 | > 1000 | > 1000 | > 1000 | > 1000 | > 1000 | > 1000 | – | > 1 | > 1000 | > 1000 | –
4 | Cc1ccc(NC(=O)c2ccc(CN3CCN(C)CC3)cc2)cc1Nc1nc(-c2cccnc2)cs1 [Masitinib] | 3820 | – | 3510 | 3220 | 3340 | 3400 | 2600 | 2060 | 3300 | 3230 | 3370 | 3.85 | 1830 | 3270 | 2330
5 | CC(=O)O[C@]1(C(C)=O)CC[C@H]2[C@@H]3C=C(C)C4=CC(=O)CC[C@]4(C)[C@H]3CC[C@@]21C [Megestrol] | > 10000 | > 10000 | > 10000 | > 10000 | > 10000 | > 10000 | > 10000 | > 10000 | > 10000 | > 10000 | > 10000 | – | – | – | –
6 | CCN(CC)CCCC(C)Nc1c2ccc(Cl)cc2nc2ccc(OC)cc12 (configuration not stated) [Mepacrine aq] | 956 | 1170 | 2200 | 2910 | 2370 | 1230 | 1230 | 1070 | 918 | 929 | 1320 | – | – | – | –
7 | CCNC(=O)c1noc(-c2cc(C(C)C)c(O)cc2O)c1-c1ccc(CN2CCOCC2)cc1 [NVP-AUY922] | 23.2 | 20.4 | 13.9 | 67.9 | 42.1 | 14.3 | 12 | 18.3 | 21.7 | 22.9 | 22.9 | – | – | – | –
8 | Cc1cn(-c2cc(NC(=O)c3ccc(C)c(Nc4nccc(-c5cccnc5)n4)c3)cc(C(F)(F)F)c2)cn1 [Nilotinib] | > 10000 | – | > 10000 | > 10000 | > 10000 | > 10000 | > 10000 | > 10000 | > 10000 | > 10000 | > 10000 | > 10 | – | – | –
9 | C=CCc1cccc(/C=N/NC(=O)CN2CCN(Cc3ccccc3)CC2)c1O [PAC-1] | > 10000 | > 10000 | > 10000 | – | > 10000 | 1890 | 1370 | 3660 | 3490 | 2920 | 2530 | 2.02 | 2320 | 1130 | 2430
10 | CN(C)C[C@@H]1CCn2cc(c3ccccc32)C2=C(C(=O)NC2=O)c2cn(c3ccccc23)CCO1 [Ruboxistaurin] | 2060 | 1880 | 2960 | – | 2420 | 3290 | 1970 | 2170 | 2080 | 1200 | 2980 | 3.67 | 2890 | 3420 | 1360
11 | c1ccc2c(CCNc3ccc(Nc4ccncc4)cc3)c[nH]c2c1 [Serdemetan] | – | > 10000 | 2810 | 865 | 3310 | 1370 | 1350 | 1620 | 1150 | 887 | 2440 | 3.24 | 2710 | 3740 | 876
12 | Cn1cncc1[C@@](N)(c1ccc(Cl)cc1)c1ccc2c(c1)c(-c1cccc(Cl)c1)cc(=O)n2C [Tipifarnib] | – | > 10000 | > 10000 | – | 342 | 1350 | 585 | 97.5 | 510 | 366 | 351 | > 10 | 683 | 1510 | 175
13 | Oc1ncc(N(CCCl)CCCl)c(O)n1 [Uracil mustard] | > 10000 | > 10000 | > 10000 | > 10000 | > 10000 | > 10000 | > 10000 | > 10000 | > 10000 | – | > 10000 | – | – | – | –
14 | CS(=O)(=O)c1ccc(C(=O)Nc2ccc(Cl)c(-c3ccccn3)c2)c(Cl)c1 [Vismodegib] | – | > 10000 | > 10000 | > 10000 | > 10000 | > 10000 | > 10000 | > 10000 | > 10000 | > 10000 | > 10000 | > 10 | – | – | –
